Counter-ions that a name gives are not always drawn. Like-named read-outs stand apart in the source and are kept apart here.
Legend:
Ras:Raf complexes = experiment: Protein-fragment complementation assay H-Ras:Raf; type: cell-based, human; conditions: for Assay activity: hit in Ras/Raf assay, drugs screened at 10 micromolar; for level of the Ras:Raf complexes (intensity of the fluorescence) / subcellular location of the Ras:Raf complexes: FIG. 3E; for level of the Ras:Raf complexes (intensity of the fluorescence): compared with the vehicle alone; for subcellular location of the Ras:Raf complexes: in control cells complexes localized at the cell membrane
From the text: (§1) To construct dynamic assays for protein-protein complexes, we used a protein-fragment complementation assay strategy (PCAs) in intact human cells. (A variety of other suitable assays, and reporter options, are described in detail below.) The principle of PCA is that complementary polypeptide fragments (F[1] and F[2]) of a reporter protein or enzyme will fold into an active form only if fused to two proteins which interact and bring the complementary fragments of the reporter protein into proximity. Reconstitution of the fragments of the reporter protein generates a fluorescent signal that can be quantified in intact cells, and the amount of the signal is proportional to the amount of the protein-protein complex used in constructing the assay. Given a suitable reporter type, the subcellular location of the complex can also be measured.
(§2) Reporter fragments for PCA were generated by oligonucleotide synthesis (Blue Heron Biotechnology, Bothell, Wash.), starting with the sequence of yellow fluorescent protein (YFP). First, oligonucleotides coding for polypeptide fragments YFP[1]and YFP[2] […] Next, PCR mutagenesis was used to generate the mutant fragments IFP[1] and IFP[2]. The IFP[1] fragment corresponds to YFP[1]-(F46L, F64L, M153T) and the IFP[2] fragment corresponds to YFP[2]-(V163A, S175G). […] The YFP[1], YFP[2], IFP[1] and IFP[2] fragments were amplified by PCR to incorporate restriction sites and a linker sequence, described below, in configurations that would allow fusion of a gene of interest to either the 5′- or 3′-end of each reporter fragment. The reporter-linker fragment cassettes were subcloned into a mammalian expression vector (pcDNA3.1Z, Invitrogen) that had been modified to incorporate the replication origin (oriP) of the Epstein Barr virus (EBV). […] Additionally, these vectors still retain the SV40 origin, allowing for episomal expression in cell lines expressing the SV40 large T antigen (e.g. HEK293T, Jurkat or COS).
(§3) PCA fusion constructs were prepared for a proteins known to participate in cellular pathways that have been described in the scientific literature as being linked to cancer. The selection of protein-protein complexes used, and the rationale for their use, is provided in Table 1 and the gene identifiers for the cDNAs used in assay construction are provided in Table 2. The full coding sequence for each gene of interest was amplified by PCR from a sequence-verified full-length cDNA. Resulting PCR products were column purified (Centricon), digested with appropriate restriction enzymes to allow directional cloning, and fused in-frame to either the 5′ or 3′-end of YFP[1], YFP[2], IFP[1] or IFP[2] through a linker encoding a flexible 10 amino acid peptide (Gly.Gly.Gly.Gly.Ser)2. […] Recombinants in the host strains DH5-alpha (Invitrogen, Carlsbad, Calif.) or XL1 Blue MR (Stratagene, La Jolla, Calif.) were screened by colony PCR, and clones containing inserts of the correct size were subjected to end sequencing to confirm the presence of the gene of interest and in-frame fusion to the appropriate reporter fragment. A subset of fusion constructs were selected for full-insert sequencing by primer walking. DNAs were isolated using Qiagen MaxiPrep kits (Qiagen, Chatsworth, Calif.). PCR was used to assess the integrity of each fusion construct, by combining the appropriate gene-specific primer with a reporter-specific primer to confirm that the correct gene-fusion was present and of the correct size with no internal deletions.
(§4) HEK293 cells were maintained in MEM alpha medium (Invitrogen) supplemented with 10% FBS (Gemini Bio-Products), 1% penicillin, and 1% streptomycin, and grown in a 37° C. incubator equilibrated to 5% CO2. […] Up to 100 ng of the complementary YFP or IFP-fragment fusion vectors were co-transfected using Fugene 6 (Roche) according to the manufacturer's protocol.

human tumor cell lines = experiment: MTT proliferation assay and phase contrast images, cell line not given (FIGS. 5-10); type: cell-based; conditions: treated cells vs. DMSO control, cell line not named
Procedure: (§5) We used these methods to mine the known pharmacopeia for drugs with previously-unsuspected activity against cancer-related pathways. […] Hits from our cell-based screens were tested for antiproliferative activity in up to 5 different human tumor cell lines, as follows. First, drugs with significant activity in the cellular screen(s) were tested for their ability to block proliferation of a human tumor cell line (PC-3) at an initial concentration of 10 micromolar. For drugs with antiproliferative activity in PC-3 cells, dose-response curves to determine the IC50 for antiproliferative activity and additional tumor cell lines were tested to determine the breadth of activity. Methods for assessing the antiproliferative activity of the cell-based drug ‘hits’ are described below.
Cells were maintained in various media as follows: A549, LoVo and PC-3 (Ham's F12K medium with 2 mM L-glutamine and 1.5 g/L sodium bicarbonate), MIA PaCa-2 (Dulbecco's modified Eagle's medium with 4 mM L-glutamine and 4.5 g/L glucose), U87-MG (MEM+Earle's BSS). Medium for each cell line was supplemented with 10% FBS and […] Penecillin/Streptomycin. All cells were grown in incubators set at 37° C., 5% CO2. Thiazolyl Blue Tetrazolium Bromide (MTT) based proliferation assays were performed to assess the anti-proliferative activities of the compounds on these cells. Cells were seeded in 96 well plates at a density of 750 cells/well 24 hours prior to compound treatment. The cells were incubated with varying concentrations of compounds for 120 hours. Compound concentrations range from 0.03 to 100 microM (half log increments) except for alpha-Tomatine (0.001-100 microM, half log increments), Neriifolin (0.0002-100 microM) and Peruvoside (0.01-100 microM). Drug treatment was performed in 5 replicate wells. Background absorbance was established by wells containing medium but no cells. Vehicle (DMSO) only was used as control. MTT (Sigma-Aldrich, St. Louis, Mo.) was added to each well at a final concentration of 0.5 mg/ml. Following a 2 hour incubation at 37° C., medium in the wells was replaced with 0.15 ml DMSO. The plates were agitated for 15 min using a microtiter plate shaker. […] Mean absorbance values were calculated from 5 replicate wells of each drug treatment following subtraction of background absorbance from blank samples and plotted as a percentage of control.

[1] = tested on: colon adenocarcinoma (LoVo) cells; experiment: MTT proliferation assay, colon; type: cell-based, Human; conditions: Homo sapiens, Tumor Cell Colon (LoVo), 120 hours, read-out: Anti-proliferative IC-50
Procedure: (§6) Cells were maintained in various media as follows: A549, LoVo and PC-3 (Ham's F12K medium with 2 mM L-glutamine and 1.5 g/L sodium bicarbonate), MIA PaCa-2 (Dulbecco's modified Eagle's medium with 4 mM L-glutamine and 4.5 g/L glucose), U87-MG (MEM+Earle's BSS). Medium for each cell line was supplemented with 10% FBS and […] Penecillin/Streptomycin. All cells were grown in incubators set at 37° C., 5% CO2. Thiazolyl Blue Tetrazolium Bromide (MTT) based proliferation assays were performed to assess the anti-proliferative activities of the compounds on these cells. Cells were seeded in 96 well plates at a density of 750 cells/well 24 hours prior to compound treatment. The cells were incubated with varying concentrations of compounds for 120 hours. […] Drug treatment was performed in 5 replicate wells. Background absorbance was established by wells containing medium but no cells. Vehicle (DMSO) only was used as control. MTT (Sigma-Aldrich, St. Louis, Mo.) was added to each well at a final concentration of 0.5 mg/ml. Following a 2 hour incubation at 37° C., medium in the wells was replaced with 0.15 ml DMSO. The plates were agitated for 15 min using a microtiter plate shaker.

[2] = tested on: prostate adenocarcinoma (PC-3) cells; experiment: MTT proliferation assay, prostate; type: cell-based, Human; conditions: for IC50: Homo sapiens, Tumor Cell Prostate (PC-3), MTT, 120 hours, read-out: Anti-proliferative IC-50
Procedure: as §5, §6

[3] = tested on: glioblastoma (U-87 MG) cells; experiment: MTT proliferation assay, glioblastoma; type: cell-based; conditions: Homo sapiens, Tumor Cell Glioblastoma (U-87 MG), 120 hours, read-out: Anti-proliferative IC-50
Procedure: as §6

CDC42:PAK4 complexes = experiment: Protein-fragment complementation assay CDC42:PAK4; type: cell-based, human; conditions: for level of CDC42:PAK4 complexes (intensity of the fluorescence): FIG. 3F, compared with the vehicle alone
From the text: as §1, §2, §3, §4

[4] = tested on: non-small cell lung carcinoma (A549) cells; experiment: MTT proliferation assay, NSCLC; type: cell-based, Human; conditions: Homo sapiens, Tumor Cell NSCLC (A549), 120 hours, read-out: Anti-proliferative IC-50
Procedure: as §6

[5] = tested on: pancreatic carcinoma (MIA PaCa-2) cells; experiment: MTT proliferation assay, pancreatic; type: cell-based, Human; conditions: Homo sapiens, Tumor Cell Pancreatic (MIA PaCa-2), 120 hours, read-out: Anti-proliferative IC-50
Procedure: as §6

PAK4:Cofilin = experiment: Protein-fragment complementation assay PAK4:Cofilin; type: cell-based, human; conditions: hit in PAK4/CFL assay; drugs screened at 10 micromolar
From the text: as §1, §2, §3, §4

[6] = hit in CDC42/PAK4 assay, drugs screened at 10 micromolar

IC50 [1] [nM] | IC50 [2] [nM] | IC50 [3] [nM] | IC50 [4] [nM] | IC50 [5] [nM] | SMILES | also measured
 |  |  |  |  | Oc1ccc(Cl)cc1Cc1cc(Cl)ccc1O [Dichlorophene] | Assay activity (Ras:Raf complexes): Ras/Raf
 |  |  |  |  | Clc1ccccc1C(c1ccccc1)(c1ccccc1)n1ccnc1 [clotrimazole] | cell count (phase contrast images) (human tumor cell lines): decreased the cell count
3680 | 8690 | 5750 |  |  | CC(C)COCC(CN(Cc1ccccc1)c1ccccc1)N1CCCC1 (stereo not drawn) [Bepridil] | level of CDC42:PAK4 complexes (intensity of the fluorescence) (CDC42:PAK4 complexes): decrease in the level; Assay activity (CDC42:PAK4 complexes; [6]): CDC42/PAK4
10600 | 14600 | 6900 |  |  | CNCCCN1c2ccccc2CCc2ccccc21 [Desipramine] | level of the Ras:Raf complexes (intensity of the fluorescence) (Ras:Raf complexes): decrease in the level; subcellular location of the Ras:Raf complexes (Ras:Raf complexes): redistribution of the complexes to an intracellular structure; Assay activity (Ras:Raf complexes): Ras/Raf
 |  |  |  |  | COC(=O)[C@H]1[C@H]2C[C@H]3c4[nH]c5cc(OC)ccc5c4CCN3C[C@H]2C[C@@H](OC(=O)c2cc(OC)c(OC)c(OC)c2)[C@@H]1OC [isoreserpine] | cell count (phase contrast images) (human tumor cell lines): decreased the cell count
 |  |  |  |  | CCN(CC)CCOc1ccc(C(=C(Cl)c2ccccc2)c2ccccc2)cc1 [Clomiphene] | Assay activity (Ras:Raf complexes): Ras/Raf
70 | 270 |  | 180 | 130 | COC(=O)Nc1nc2ccc(C(=O)c3ccccc3)cc2[nH]1 [Mebendazole] | Assay activity (PAK4:Cofilin): PAK4/CFL
 |  |  |  |  | Cc1cccc(Nc2cc(Cl)nc(SCC(=O)O)n2)c1C [WY-14643] | proliferation of PC-3 cells (MTT assay) ([2]; FIG. 4, compared to the DMSO control): no effect on proliferation
6970 | 6190 | 4600 | 5400 | 3350 | CN1C[C@H](CNC(=O)OCc2ccccc2)C[C@@H]2c3cccc4c3c(cn4C)C[C@H]21 [Metergoline] | level of CDC42:PAK4 complexes (intensity of the fluorescence) (CDC42:PAK4 complexes): decrease in the level; Assay activity (CDC42:PAK4 complexes; [6]): CDC42/PAK4; level of the Ras:Raf complexes (intensity of the fluorescence) (Ras:Raf complexes): decrease in the level; subcellular location of the Ras:Raf complexes (Ras:Raf complexes): redistribution of the complexes to an intracellular structure
 |  |  |  |  | CC/C(=C(\c1ccccc1)c1ccc(OCCN(C)C)cc1)c1ccccc1 [tamoxifen citrate] | level of the Ras:Raf complexes (intensity of the fluorescence) (Ras:Raf complexes): decrease in the level; subcellular location of the Ras:Raf complexes (Ras:Raf complexes): redistribution of the complexes to an intracellular structure
 |  |  |  |  | C(=C\c1ccccc1)/CN1CCN(C(c2ccccc2)c2ccccc2)CC1 [Cinnarizine] | cell count (phase contrast images) (human tumor cell lines): decreased the cell count
13900 | 13900 | 16400 | 13900 | 5130 | CN(C)CCCN1c2ccccc2Sc2ccccc21 [Promazine] | level of the Ras:Raf complexes (intensity of the fluorescence) (Ras:Raf complexes): decrease in the level; subcellular location of the Ras:Raf complexes (Ras:Raf complexes): redistribution of the complexes to an intracellular structure; Assay activity (Ras:Raf complexes): Ras/Raf
990 |  | 380 | 550 | 350 | CC(C)(C)c1ccc(C(O)CCCN2CCC(C(O)(c3ccccc3)c3ccccc3)CC2)cc1 (stereo not drawn) [Terfenadine] | level of CDC42:PAK4 complexes (intensity of the fluorescence) (CDC42:PAK4 complexes): decrease in the level; Assay activity (CDC42:PAK4 complexes; [6]): CDC42/PAK4; cell count (phase contrast images) (human tumor cell lines): reduced the cell count

SMILES | IC50 [1] [nM] | IC50 [2] [nM] | IC50 [3] [nM] | IC50 [4] [nM] | IC50 [5] [nM] | also measured
CCCSc1ccc2nc(NC(=O)OC)[nH]c2c1 [Albendazole] | 140 | 300 |  | 240 | 180 | Assay activity (CDC42:PAK4 complexes): CDC42/PAK4
C[C@H]1CC[C@]2(NC1)O[C@H]1C[C@H]3[C@@H]4CC[C@H]5C[C@@H](O[C@@H]6O[C@H](CO)[C@H](O[C@@H]7O[C@H](CO)[C@@H](O)[C@H](O[C@@H]8OC[C@@H](O)[C@H](O)[C@H]8O)[C@H]7O[C@@H]7O[C@H](CO)[C@@H](O)[C@H](O)[C@H]7O)[C@H](O)[C@H]6O)CC[C@]5(C)[C@H]4CC[C@]3(C)[C@H]1[C@@H]2C [Tomatine] | 97 | 90 |  | 92 | 131 | Assay activity (CDC42:PAK4 complexes; [6]): Cdc42/PAK4
C[n+]1cc2c3c(ccc2c2ccc4cc5c(cc4c21)OCO5)OCO3 [Sanguinarine] | 810 | 330 | 340 | 780 | 180 | 

Source: US20060094059A1, “Methods for identifying new drug leads and new therapeutic uses for known drugs” (Odyssey Thera, Inc., priority 2004, published 2006)
